The values that follow come from publication PMC6037002, “Drug targeting to decrease cardiotoxicity – determination of the cytotoxic effect of GnRH-based conjugates containing doxorubicin, daunorubicin and methotrexate on human cardiomyocytes and endothelial cells” (Beilstein Journal of Organic Chemistry, 2018).

A word on the IC50: it is the concentration at which inhibition is half-maximal.

For data set [1], the system named is human acute monocytic leukemia (MonoMac6) cells. The settings on record: cited from earlier work. An excerpt:
(§1) Table 1 Comparative study of cytotoxic effects and cardiotoxicity elicited by GnRH-based antitumor compounds (1–15) and reference substances (AN-152, Dox, Dau, Mtx). IC50 values show antitumor cytotoxic characteristics of the conjugates in human breast cancer (MCF-7), human colorectal adenocarcinoma (HT-29) and human acute monocytic leukemia (MM6) derived cell lines as representative tumor cells.

Data set [2] relates to MCF-7 human breast adenocarcinoma cells. The settings on record: MTT assay; cited from earlier work.
Description: as §1
A general note: Formazan colour is commonly taken as a measure of viable cells.

Data set [3] concerns HT-29 human colon adenocarcinoma cells. The settings on record: MTT assay; cited from earlier work.
Description: as §1

For data set [4], the system named is human umbilical vein endothelial cells (HUVEC). The experiment in a line: Impedimetric measurement (xCELLigence SP), delta slope, HUVEC. The settings on record: for delta slope (DS), short-term / delta slope (DS), long-term: HUVEC, three parallels; for delta slope (DS), short-term: 0–2 h; for delta slope (DS), long-term: 0–72 h; for Cardiotoxicity, HUVEC: grade +++/++/+/0, key not given, summary of impedimetric cytotoxicity; for cytotoxic effect on HUVEC, result in words: long-term (0–72 h), 10^−8–10^−6 mol/L, impedimetry, one-way ANOVA. An excerpt: (§2) The main objective of the study reported here was to evaluate the in vitro cardiotoxic effects (as undesired side effects) of […] GnRH-III-based conjugates containing doxorubicin, daunorubicin and methotrexate on two essential target cells of cardiovascular diseases: vascular endothelial cells and cardiomyocytes. The rate of cytotoxicity (antitumor effect) vs cardiotoxicity (toxic effects on cardiomyocytes and vascular endothelium) is an important factor for efficient drug development for targeted tumor therapy with minimized side effects. The technique used in this work – impedimetry – is a dedicated one for real-time monitoring of cells to distinguish short-term (0–2 hours) and long-term (0–72 hours) effects elicited by the drug or carrier–drug conjugates. The basic theory of impedimetry is that proliferation/viability of cells is well detectable by monitoring of the electric impedance (Z) in an AC environment, due to the electric insulator character of intact surface membranes composed of the phospholipid bilayer. […] While cell physiological responses of short-term exposures result in characteristic changes of cell morphology (e.g., spreading), long-term effects characteristically influence in particular the proliferation of cells, and therefore the cytotoxic effects. The presented dimensionless values of delta slope (DS) measure the difference between the slope of the curve corresponding to the treatment and that of the control curve in impedimetric recordings, the negative signs refer to the relative values to the identical control.
(§3) Experimental part – Cellular samples
(§4) In the present study, GnRH conjugates containing anti-tumour drugs (e.g., daunorubicin, doxorubicin) were investigated in order to evaluate whether the conjugates exert a decrease cardiotoxic effect compared to that of the free drugs. The cardiac myocytes and the vascular endothelium cells are the most frequently detected target cells of antitumor compounds and they are employed in our study. Human umbilical vein endothelial cells (HUVEC; Promocell, Biomedica, Wien, Austria) were cultured in Endothelial Cell Growth Medium with Endothelial Cell Growth Supplement Mix (Promocell, Biomedica, Wien, Austria) and 100 µg/mL penicillin/streptomycin. Primary human cardiac myocytes (HCM; Promocell, Biomedica, Wien, Austria) were cultured in Myocyte Growth Medium (Promocell, Biomedica, Wien, Austria).
(§5) Impedimetric measurements
(§6) The xCELLigence SP system was used for impedimetric measurements. The bottom of the wells of a 96-well E-plate is installed with a golden electrode array that constitutes the adhesion surface. Adhering cells – acting as insulators – change the electric impedance measured on the electrodes. The measured impedance change is in direct correlation with the number of adhering cells and the extent of adhesion. The results of impedance change are given in the form of Cell Index (CI) calculated by the xCELLigence system according to the […]
(§7) where Zt is the measured impedance in a time point, Zb is the background impedance and F is an inbuilt factor (F = 15 at 10 kHz) depending on the frequency of the alternating current. The measurements took place in an incubator holding a 37 °C temperature and 5% carbon-dioxide […]
(§8) The experiments started with a measurement of baseline impedance for 1 hour. After that, the cells (10^4 cells/well) were added to the wells and allowed to adhere to the electrodes. When the adhering cells reached a balanced state in the wells, signified by the impedance curves […]
(§9) free drugs at 10−12 – 10−6 M and the conjugates at 10−8 – 10−6 M final concentrations were […]
(§10) added to the wells. The changes in impedance were measured for at least 72 hours. For each measurement three parallels were measured.
(§11) The evaluation of responses followed the previously described strategy: acute effects of compounds were evaluated as a characteristic morphology of the curves in the 0–2 hours

Data set [5] has as its system primary human cardiac myocytes (HCM). The settings on record: for delta slope (DS), short-term / delta slope (DS), long-term: HCM, three parallels; for delta slope (DS), short-term: 0–2 h; for delta slope (DS), long-term: 0–72 h; for cytotoxic effect on HCM, result in words: long-term (0–72 h), 10^−8–10^−6 mol/L (free drugs 10^−12–10^−6 mol/L), impedimetry, one-way ANOVA.
Description: as §2, §3, §4, §5, §6, §7, §8, §9, §10, §11

Like-named read-outs stand apart in the source and are kept apart here.

Regarding GnRH-III(Mtx-K(Dau=Aoa)) [conjugate 13], the 50% inhibitory concentration (IC50) in data set [1] was 1410 ± 390 nM; in data set [2], 5400 ± 700 nM; in data set [3] it was 5600 ± 3000 nM. The “delta slope (DS), short-term” value was 0.013 in data set [4] (Table S5a, 10^-6 mol/L); 0.002 in data set [4] (Table S5a, 10^-7 mol/L); 0.001 in data set [4] (Table S5a, 10^-8 mol/L); -0.003 in data set [5] (Table S5b, 10^-6 mol/L); 0.002 in data set [5] (Table S5b, 10^-7 mol/L); -0.002 in data set [5] (Table S5b, 10^-8 mol/L). For the same substance, the “delta slope (DS), long-term” value is reported as 0.001 in data set [4] (Table S5a, 10^-6 mol/L); 0.001 in data set [4] (Table S5a, 10^-7 mol/L); -0.001 in data set [4] (Table S5a, 10^-8 mol/L); -0.001 in data set [5] (Table S5b, 10^-6 mol/L); -0.001 in data set [5] (Table S5b, 10^-7 mol/L); -0.001 in data set [5] (Table S5b, 10^-8 mol/L). In addition, in data set [4], the “Cardiotoxicity, HUVEC” value amounted to 0. In addition, the “cytotoxic effect on HUVEC, result in words” value in data set [4] was “no significant effect was detected”. Moreover, the “Cardiotoxicity, HCM” value in data set [5] (grade +++/++/+/0, key not given, summary of impedimetric cytotoxicity) worked out at 0. Moreover, in data set [5], the “cytotoxic effect on HCM, result in words” value was “none of the two investigated mixed drug–GnRH-III conjugates (13 and 15) exerted any significant cytotoxic effect”.

Consider GnRH-III(Dox-O-glut) [conjugate 1], for which the concentration for half-maximal inhibition (IC50) is 39 ± 10 nM in data set [1], 100 ± 100 nM in data set [2] and 2400 ± 200 nM in data set [3]. Also, the “delta slope (DS), short-term” value in data set [4] (Table S2a, 10^-6 mol/L) is recorded as 0.038; in data set [4] (Table S2a, 10^-7 mol/L), 0.016; in data set [4] (Table S2a, 10^-8 mol/L), -0.011; in data set [5] (Table S2b, 10^-6 mol/L), 0.012; in data set [5] (Table S2b, 10^-7 mol/L) it was 0.002; in data set [5] (Table S2b, 10^-8 mol/L), 0.001. Further, the “delta slope (DS), long-term” value is -0.054 in data set [4] (Table S2a, 10^-6 mol/L, listed as 1); −0.054 in data set [4] (Table S2a, 10^-6 mol/L, listed as GnRH-III(Dox-O-glut)); -0.028 in data set [4] (Table S2a, 10^-7 mol/L, listed as 1); −0.028 in data set [4] (Table S2a, 10^-7 mol/L, listed as GnRH-III(Dox-O-glut)); -0.003 in data set [4] (Table S2a, 10^-8 mol/L); −0.025 in data set [5] (Table S2b, 10^-6 mol/L). Besides, the “delta slope (DS), long-term” value in data set [5] (Table S2b, 10^-8 mol/L) is reported as −0.002.

In the case of GnRH-III(Dau=Aoa-YRRL) [conjugate 8], the concentration for half-maximal inhibition (IC50) was more than 1000 nM in data set [1], 1800 ± 500 nM in data set [2] and 28600 ± 5500 nM in data set [3]. Besides, the “delta slope (DS), short-term” value in data set [4] (Table S4a, 10^-6 mol/L) was 0.003; in data set [4] (Table S4a, 10^-7 mol/L), -0.004; in data set [4] (Table S4a, 10^-8 mol/L), -0.010; in data set [5] (Table S4b, 10^-6 mol/L), -0.002; in data set [5] (Table S4b, 10^-7 mol/L), -0.001; in data set [5] (Table S4b, 10^-8 mol/L) it was -0.003. Further, the “delta slope (DS), long-term” value in data set [4] (Table S4a, 10^-6 mol/L) was −0.018; in data set [4] (Table S4a, 10^-7 mol/L) it was -0.002; in data set [4] (Table S4a, 10^-8 mol/L) it was -0.007; in data set [5] (Table S4b, 10^-6 mol/L), −0.004; in data set [5] (Table S4b, 10^-7 mol/L), -0.002; in data set [5] (Table S4b, 10^-8 mol/L), -0.001.

With GnRH-III(Dau=Aoa-GFLG) [conjugate 7], the figures for the IC50 in data set [1], in data set [2] and in data set [3] were 894 ± 250 nM, 3900 ± 1200 nM and 22500 ± 1700 nM, respectively. The “delta slope (DS), short-term” value in data set [4] (Table S4a, 10^-6 mol/L) was 0.003; in data set [4] (Table S4a, 10^-7 mol/L) it was -0.012; in data set [4] (Table S4a, 10^-8 mol/L), -0.002; in data set [5] (Table S4b, 10^-6 mol/L), 0.003; in data set [5] (Table S4b, 10^-7 mol/L) it was -0.001; in data set [5] (Table S4b, 10^-8 mol/L), -0.001. The “delta slope (DS), long-term” value in data set [4] (Table S4a, 10^-6 mol/L) is on record as −0.013; in data set [4] (Table S4a, 10^-7 mol/L) it was 0.001; in data set [4] (Table S4a, 10^-8 mol/L) it was -0.001; in data set [5] (Table S4b, 10^-6 mol/L), -0.002; in data set [5] (Table S4b, 10^-7 mol/L), -0.002; in data set [5] (Table S4b, 10^-8 mol/L), 0.001. In addition, the “cytotoxic effect on HCM, result in words” value in data set [5] is “completely lost their cytotoxic effect”.

As for “[^4Lys(Dau=Aoa)]-GnRH-III(Dau=Aoa) [conjugate 14]”, the IC50 in data set [1] was 513 ± 40 nM; in data set [2] it was 2900 ± 900 nM; in data set [3], 6800 ± 1000 nM. The “delta slope (DS), short-term” value is listed as 0.006 in data set [4] (Table S3a, 10^-6 mol/L); -0.005 in data set [4] (Table S3a, 10^-7 mol/L); 0.002 in data set [4] (Table S3a, 10^-8 mol/L); -0.001 in data set [5] (Table S3b, 10^-6 mol/L); -0.002 in data set [5] (Table S3b, 10^-7 mol/L); 0.001 in data set [5] (Table S3b, 10^-8 mol/L). The “delta slope (DS), long-term” value in data set [4] (Table S3a, 10^-6 mol/L) is -0.001; in data set [4] (Table S3a, 10^-7 mol/L), -0.001; in data set [4] (Table S3a, 10^-8 mol/L) it was 0.001; in data set [5] (Table S3b, 10^-6 mol/L), -0.002; in data set [5] (Table S3b, 10^-7 mol/L), -0.001; in data set [5] (Table S3b, 10^-8 mol/L), -0.0011. For the same substance, in data set [4], the “Cardiotoxicity, HUVEC” value was found to be 0. The “cytotoxic effect on HUVEC, result in words” value in data set [4] is recorded as “completely lost the cytotoxic effect”. In addition, the “cytotoxic effect on HCM, result in words” value in data set [5] was “completely lost their cytotoxic effect”.
